Broadly, the Kd is a measure of binding affinity in units of concentration. Low readings indicate a tighter complex, high ones a looser complex.

One assay deals with T1, human PERK (hPERK) (Homo sapiens, UniProt Q9NZJ5).
T1 construct: gene EIF2AK3
T1 sequence (Q9NZJ5 30-1116): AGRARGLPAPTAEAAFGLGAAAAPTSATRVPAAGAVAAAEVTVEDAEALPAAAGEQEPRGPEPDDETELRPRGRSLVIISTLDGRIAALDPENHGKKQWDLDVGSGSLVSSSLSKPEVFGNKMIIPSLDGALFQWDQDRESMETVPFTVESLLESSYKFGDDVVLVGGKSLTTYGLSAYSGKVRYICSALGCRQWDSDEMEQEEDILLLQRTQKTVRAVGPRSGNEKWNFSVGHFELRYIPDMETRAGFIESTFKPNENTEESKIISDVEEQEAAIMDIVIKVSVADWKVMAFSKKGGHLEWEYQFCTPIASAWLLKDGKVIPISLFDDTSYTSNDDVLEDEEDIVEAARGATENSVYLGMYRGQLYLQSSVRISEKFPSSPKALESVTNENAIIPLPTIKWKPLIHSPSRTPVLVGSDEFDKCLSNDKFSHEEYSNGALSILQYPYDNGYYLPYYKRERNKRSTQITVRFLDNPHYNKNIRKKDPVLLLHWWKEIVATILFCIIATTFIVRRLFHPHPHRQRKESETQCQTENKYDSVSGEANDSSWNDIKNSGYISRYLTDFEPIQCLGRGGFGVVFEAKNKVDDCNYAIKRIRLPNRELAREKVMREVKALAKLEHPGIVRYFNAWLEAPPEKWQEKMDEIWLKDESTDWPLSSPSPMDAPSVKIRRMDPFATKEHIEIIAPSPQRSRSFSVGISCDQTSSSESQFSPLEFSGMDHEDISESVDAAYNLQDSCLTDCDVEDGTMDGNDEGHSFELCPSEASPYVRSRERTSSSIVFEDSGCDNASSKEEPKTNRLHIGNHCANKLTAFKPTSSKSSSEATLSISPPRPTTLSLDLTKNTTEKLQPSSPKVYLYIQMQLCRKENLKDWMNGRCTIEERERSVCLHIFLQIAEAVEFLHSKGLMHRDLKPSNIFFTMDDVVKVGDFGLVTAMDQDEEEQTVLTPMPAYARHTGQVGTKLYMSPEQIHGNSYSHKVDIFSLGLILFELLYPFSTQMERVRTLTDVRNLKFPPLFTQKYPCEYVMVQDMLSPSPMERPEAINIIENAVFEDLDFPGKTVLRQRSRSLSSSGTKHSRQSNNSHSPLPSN
The assay can be described thus: microscale thermophoresis (MST) with labeled PERK protein. Type of assay: binding. A general note: Microscale thermophoresis detects binding through changes in fluorescence in a small temperature gradient.

The next assay has as its target T2, mouse PERK (mPERK) (Mus musculus, UniProt Q9Z2B5).
T2 construct: gene Eif2ak3
T2 sequence (Q9Z2B5 29-1114): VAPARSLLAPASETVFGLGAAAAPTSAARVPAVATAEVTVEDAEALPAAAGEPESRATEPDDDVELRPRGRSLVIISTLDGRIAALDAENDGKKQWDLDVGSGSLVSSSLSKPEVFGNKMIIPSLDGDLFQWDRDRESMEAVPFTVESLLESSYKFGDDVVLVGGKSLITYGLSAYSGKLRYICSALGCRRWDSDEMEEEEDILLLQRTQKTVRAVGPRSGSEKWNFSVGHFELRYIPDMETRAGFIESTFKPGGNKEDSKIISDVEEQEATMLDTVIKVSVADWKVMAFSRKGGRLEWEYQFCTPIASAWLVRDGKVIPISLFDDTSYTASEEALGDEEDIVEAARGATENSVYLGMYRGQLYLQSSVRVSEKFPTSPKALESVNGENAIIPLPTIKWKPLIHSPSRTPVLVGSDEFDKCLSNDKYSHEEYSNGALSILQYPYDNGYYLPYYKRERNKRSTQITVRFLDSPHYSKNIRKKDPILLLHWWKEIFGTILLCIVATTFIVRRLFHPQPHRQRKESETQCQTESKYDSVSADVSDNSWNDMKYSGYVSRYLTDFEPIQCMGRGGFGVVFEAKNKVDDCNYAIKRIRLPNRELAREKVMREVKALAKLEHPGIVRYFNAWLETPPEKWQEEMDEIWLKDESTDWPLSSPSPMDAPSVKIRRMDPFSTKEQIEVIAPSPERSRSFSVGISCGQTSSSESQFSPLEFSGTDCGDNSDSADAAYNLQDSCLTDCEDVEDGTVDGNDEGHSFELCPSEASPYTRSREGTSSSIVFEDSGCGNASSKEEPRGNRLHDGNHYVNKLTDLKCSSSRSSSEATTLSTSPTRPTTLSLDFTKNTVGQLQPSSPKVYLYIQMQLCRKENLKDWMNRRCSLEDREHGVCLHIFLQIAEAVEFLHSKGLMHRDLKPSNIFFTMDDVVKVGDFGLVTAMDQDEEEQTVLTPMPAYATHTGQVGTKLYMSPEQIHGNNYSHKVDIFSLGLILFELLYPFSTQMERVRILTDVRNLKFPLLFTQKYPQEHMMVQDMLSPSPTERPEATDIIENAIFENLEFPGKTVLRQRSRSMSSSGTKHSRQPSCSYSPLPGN
The assay is described as above. Type of assay: binding.

The structures appear in SMILES notation.

With `C[C@@H]1O[C@@H](O[C@@H]2[C@@H](O)[C@H](OCCc3ccc(O)c(O)c3)O[C@H](CO[C@@H]3O[C@H](CO)[C@@H](O)[C@H](O)[C@H]3O)[C@H]2OC(=O)/C=C/c2ccc(O)c(O)c2)[C@H](O)[C@H](O)[C@H]1O` [ECH, Echinacoside], the dissociation constant Kd at human PERK (hPERK) was determined as 0.635 ± 0.074 µM; at mouse PERK (mPERK), 0.851 ± 0.081 µM.
